In a melting point compilation (Tetko et al.; mined from patent text by program, amines drawn as free bases though some values may be those of a salt):

SMILES | melting point [°C]
Cc1ccc(S(=O)(=O)c2ccc(C(F)(F)F)cc2NC(=O)N[C@@H](Cc2ccc(NC(=O)c3c(Cl)cccc3Cl)cc2)C(=O)O)cc1 | 233
Cc1c(C(=O)OC(C)C)ncc2c1c1c(OCc3ccccc3)cccc1n2CC(=O)N(C)CCc1ccccc1 | 69 to 74
NNc1ccc2c(c1)CCNC2=O | 158 to 160
CSC(N)=C(CCN1CCC(c2noc3cc(F)ccc23)CC1)[N+](=O)[O-] | 150 to 154
CC(=O)c1cc2ccccc2cn1 | 84.4 to 86.8
O=C1Cc2cccc(Nc3ccc(Cl)cc3)c2N1 | 190 to 192
O=C(Oc1ccccc1)c1cc2cccc(O)c2[nH]1 | 156 to 157
CCc1c(C(F)(F)F)noc1NS(=O)(=O)c1ccccc1 | 105 to 106
O=C1N(Cc2ccccn2)c2ccccc2C12COc1cc3nccnc3cc12 (centres undefined) | 232 to 233
CC(=O)NC(=S)NC1CC2c3cccc4[nH]cc(c34)CC2N(C)C1 (centres undefined) | 240 to 242
COc1ccc(CNc2cc(OCc3ccccn3)ccc2C(=O)c2cc(OC)c(OC)c(OC)c2)cc1Cl | 142 to 144
CCn1ncc2c1ncc1c(OC(C)C)nc3cc(C)nn3c12 | 129 to 130
C/C=C/CC(=O)N[C@H]1CC[C@H](CCN2CCN(c3nccc4c3OCC4)CC2)CC1 | 170
CC(=O)c1cc(C(C)(C)C)cc(Br)c1O | 98 to 98.5
COc1ccccc1-c1nc(N)ncc1-c1ccc(=O)[nH]n1 | 273
CC12CC(=O)C3C(CCC4CC(O)CCC43C)C1CCC2C(=O)CCc1ccccn1 (centres undefined) | 179 to 180
OCc1ccc(Cc2ccccc2CO)cc1 | 102
COC(=O)C=Cc1ccc(OCC2CCCCC2)cc1 | 104
CCC(Oc1ccc(C(C)(C)CC)cc1C(C)(C)CC)C(=O)Nc1cc(Cl)c2[nH]c(=O)[nH]c2c1O (centres undefined) | 201 to 204
COc1ccc(C(=O)Nc2ccc(C(C)(C)C#N)cc2)c(Cl)c1OC | 195 to 198
CCOC(=O)CC(=O)N1NCCCC1C(=O)OC(C)(C)C (centres undefined) | 86 to 87
Nc1ccc2ncc(Br)cc2c1 | 151 to 152
O=C(c1cc(Cl)ccc1Nc1ccncc1)N1CCCCC1 | 158 to 159
CC(C)(C)C(O)(Cn1cncn1)C(=O)C=Cc1ccc(Cl)cc1 (centres undefined) | 83 to 85
CC(=O)c1sccc1S(=O)(=O)N(C)c1cccc2cc(-c3nccs3)[nH]c12 | 156
O=C(/C=C/c1ccc(C(=O)Nc2cccc(Nc3nc(-c4cccnc4)cs3)c2)s1)NOC1CCCCO1 (centres undefined) | 170

SMILES | melting point [°C]
Cc1cc(=O)[nH]c(=O)n1Cc1ccccc1 | 228 to 230
CC(C)CC(=O)c1cc(-c2ccccc2)no1 | 62 to 64
Nc1cc(C(F)(F)F)on1 | 44 to 45
COC(=O)NCc1cccc(-c2ccnc3c(C(=O)c4ccco4)cnn23)c1 | 152 to 154
CCOCc1nc2c(N)nc3ccc(OCc4ccccc4)cc3c2n1CCCCNC(=O)N1CCOCC1 | 150 to 153
CC1=NC=CC(C)(c2c(F)cc3c(=O)c(C(=O)O)cn4c3c2OCC4C)C1 (centres undefined) | 308 to 312
CC(=O)N1CCN=C1Nc1ccnn1-c1cccc(C(F)(F)F)c1 | 194 to 197
CCOC(=O)CSc1nc(O)ns1 | 131
CCc1cnc(NC(=O)C(c2ccccc2)c2ccccc2)o1 | 148 to 149
CCCCCc1c(C)nc(C)c(CO)c1-c1ccccc1 | 99 to 100
COC(=O)CCCC(=O)N(CCc1c[nH]c2ccccc12)Cc1ccccc1 | 107 to 108
CC(C)(C)c1cc(C=C2CCNC2=O)cc(C(C)(C)C)c1O | 216 to 218
Cc1nc2ccccc2n1Cc1ccc(C(=O)N(C)C2CCNCC2)cc1 | 196 to 198
Cc1ccc(-c2ccc3c(c2)C=C(CNc2ccc(CN(C)C4CCOCC4)cc2)CCO3)cc1 | 158 to 160
O=C(O)c1ccccc1Oc1ccc(C(F)(F)F)cc1NS(=O)(=O)c1ccccc1 | 177
CC(c1cc2cc(F)ccc2s1)N(O)C(N)=O (centres undefined) | 149 to 153
COC(=O)[C@@H](NC(=O)[C@H](Cc1ccccc1)NC(=O)c1ccccc1)C(C)C | 160 to 163
COc1ccc2c(c1)C(=O)N(c1ccc3ncsc3c1)C2 | 204 to 207
C=C(C)C(=O)NCC(C)OC(=O)C(Br)(Br)Br (centres undefined) | 104 to 105
O=c1ccc(C(c2ccc(Cl)cc2)c2ccc(Cl)cc2)c[nH]1 | 211 to 215
O=C(Nc1cc(F)cc(F)c1)Oc1ccccc1 | 123 to 125
Cc1cc(Oc2ccc(C(F)(F)F)cc2[N+](=O)[O-])nn1C(=O)OC(C)(C)C | 68 to 70
COc1cc2cc(C3=NNC(=O)CC3)sc2cc1OC | 254 to 256
CC1(C)OC(C)(C)C(=NO)C1=NO | 252
CCCN(C(N)=S)c1cccc2ccccc12 | 170 to 171
Brc1cccc(C2Cc3cnc(Nc4ccc(CCNc5ccccc5)cc4)nc3-c3ccccc32)c1 (centres undefined) | 92 to 94

SMILES | melting point [°C]
O=c1[nH]c2cc(N3CCCC3)c(F)cc2c(=O)n1O | > 250
CCOc1c(OC)cc(C(=O)N2CCN(C(=O)C3=Cc4cc(OC)c(OC)cc4CCC3)CC2)cc1OC | 171 to 172
Cn1cc(CCO)c2c3c(c(-c4ccccc4Cl)cc21)C(=O)NC3=O | 225 to 229
CCOC(=O)C1(N)N=C(c2ccccc2Cl)c2cc(CC)sc2-n2c(C)nnc21 (centres undefined) | 180 to 181
Oc1c(C(=S)NCc2ccc(Cl)cc2)cnc2ccc(CN3CCOCC3)cc12 | 215 to 216
CCC1C(=O)Nc2ccc3ccccc3c21 (centres undefined) | 124 to 126
CCOC(OCC)c1cc(NC(c2ccccc2)(c2ccccc2)c2ccccc2)c(F)cn1 | 125 to 127
Nc1c(-c2cc(Cl)ccc2O)c2cc(Cl)ccc2[nH]c1=O | 184 to 185
Cc1cc(-n2ccnc2)c2cccc(OCc3c(Cl)ccc(S(=O)(=O)N4CC[C@H]4C(=O)O)c3Cl)c2n1 | 160
O=c1c2ccccc2ncn1C1CCN(CCCc2ccccc2)CC1 | 107 to 108
O=Cc1cccc2c1sc1cc3ccccc3cc12 | 202 to 204
Cc1ccc(S(=O)(=O)Nc2ccc(F)cc2)cc1 | 78 to 79.5
C=CCCCCCCOc1ccc(CCC(N)(CO)CO)cc1 | 95 to 98
CCN(CC)C(=O)C1(OC(=S)N(CC)CC)C=CC=NC1F (centres undefined) | 87 to 92
C#CCn1cc(CO)sc1=O | 97 to 98
CN(C=O)C1CCN(CC2=Cc3ccccc32)CC1 | 86 to 88
CC1=C(C(=C2SCSCS2)c2ccc(C)cc2)CN(C)O1 | 89 to 90
COc1cc(-c2cccc(Cl)c2)c2cc(Br)ccc2n1 | 124
COc1ccc(Cn2c(C)c(C=O)c3cnnc(OCc4ccccc4)c32)cc1 | 139 to 145
COC(=O)c1c(C)c(OC)cc(O)c1C=O | 118 to 119
CC1(C)OC(=O)Nc2ccc(-c3sccc3C#N)cc21 | 200 to 202
Cc1cc(C)c(C(CO)c2ccc(Br)cc2)c(O)c1C (centres undefined) | 114 to 115
CCCCOc1cc(-c2cc3ccccc3[nH]2)ccc1O | 163
CC(Nc1ccc(Oc2ccccc2)cc1)C(=O)O (centres undefined) | 160
Cn1nnnc1C(/C=C/[C@@H]1C[C@@H](O)CC(=O)O1)=C(c1ccc(F)cc1)c1ccc(F)cc1 | 104 to 106
CC(C)(C)OC(=O)N1CCN(CC(O)COc2ccc(CC#N)cc2)CC1 (centres undefined) | 98 to 100

SMILES | melting point [°C]
Cc1cc(Oc2ccc(F)cc2[N+](=O)[O-])n[nH]1 | 81 to 84
O=C(O)Cn1cc(Cc2nc3c(F)c(F)cc(F)c3s2)c2cccc(Cl)c21 | 228 to 230
CC(=O)c1ccccc1-c1noc2ccccc12 | 108
O=C(O)CCCc1cc2nc(C(F)(F)F)ccc2n1S(=O)(=O)c1ccccc1 | 168
c1ccc(N2c3ccccc3Sc3ccccc32)nc1 | 107 to 109
Cn1c(-c2n[nH]c(=O)[nH]2)nc2ccccc21 | 293 to 296
O=CN1CC2CCCc3c(C(=O)CCCl)ccc1c32 (centres undefined) | 82 to 85
N#Cc1cnn(-c2nc(Cl)c(C(F)(F)F)cc2Cl)c1Br | 121 to 122
Cc1nc(-c2ccc(C#N)cc2)sc1C(=O)O | 235 to 250
CC(C)CN1C(=O)CC(C)(C)CC1=O | 48 to 52
COC1CN(C(=O)c2cc(-c3cccc(Cl)c3)c(=O)[nH]c2-c2c(Cl)cccc2C#N)C1 | 239 to 243
CCCCCn1ncc2c(N)c3c(nc21)CCNC3=O | 161 to 162
COC(=O)COc1ccc(OC)cc1NC(=O)c1ccc(OCCCCc2ccccc2)cc1 | 91 to 93
CCn1cc(C(=O)O)c(=O)c2cc(F)c(N3CCNC(CN(C)C)C3)cc21 (centres undefined) | 148 to 150
CCCCOc1c(CNC(=O)OC(C)(C)C)n(CC(C)(C)C)c(=O)c2ccc(CO)cc12 | 92 to 93
CCCCc1oc2ccccc2c1C(=O)c1ccc(OCCN(CC)CC)c(I)c1 | 100 to 102
CN1CCN(c2ccc(/C=C/C(=O)O)cc2)CC1 | 223 to 226
O=C(NC1CCN(CCc2ccc(Cl)cc2)C1)C12CC3CC(CC(C3)C1)C2 (centres undefined) | 94 to 95
C=CCc1ccc2oc(C=CC(=O)OCC)c(C)c2c1O | 125 to 127
Cc1cnc2[nH]cc(/C=C3\N=C(N4CCCCC4)NC3=O)c2c1 | 320 to 321
CCc1ccc2[nH]c(=O)oc(=O)c2c1 | 178 to 181
COc1cc(CN[C@@H](C(=O)N[C@H](C(=O)NCc2ccc(OC)cc2O)C(C)C)[C@H](O)[C@H](Cc2ccccc2)NC(=O)OC(C)(C)C)cc(OC)c1 | 138
Nc1ncnc2c1nnn2C1C=CCC1 (centres undefined) | 207 to 208
CC(=O)NC1CCC(Nc2ncc3c(N)cc(=O)n(CCCO)c3n2)CC1 (centres undefined) | > 300
CC(=O)N1CCN(c2c(N[C@@H](Cc3ccccc3)C(=O)O)c(=O)c2=O)CC1 | 155 to 158
CCOC(=O)CCc1cn(Cc2ccc(OC)c(OCc3nc(-c4ccccc4)oc3C)c2)nc1OCC | 109 to 110
